Key:
[1] = target: T1, NUDT1 (Homo sapiens, UniProt P36639); test: NUDT1 in vitro activity assay (malachite green); type: biochemical; parameters: Full length NUDT1 gene synthesis; N-terminal His tag with thrombin site from pET28a(+) (NdeI/XhoI) (N, cleaved yes); made in house; host or cells: E. coli BL21 (DE3); details: 100 μM
[2] = target: T1, NUDT1; test: Gel-based AfBPP labelling of recombinant NUDT1 spiked into human lysate; type: binding; parameters: Full length NUDT1 gene synthesis; N-terminal His tag with thrombin site from pET28a(+) (NdeI/XhoI) (N, cleaved yes); made in house; host or cells: E. coli BL21 (DE3); details: parent compound added before probe
[3] = target: T2, PTGR2 (Homo sapiens, UniProt Q8N8N7); test: PTGR2 activity assay (LC-MS/MS); type: biochemical; details: tested up to 250 μM, data not shown
T2 construct: purchased Antikoerper-online ABIN1098255
Procedure: AIFM1 expression & purification
Recombinant AIFM1 was expressed in a Rosetta2 E. coli strain. Bacterial growth was conducted in LB media supplemented with riboflavin and FAD shaking at 37°C and 180 rpm. Expression was induced with 1.0 mM IPTG and incubated for further 16 h before harvesting. Cells were harvested on ice in PBS and cell pellets stored at -20°C. Cells were lysed by French press and the 6xHis-tagged constructs were purified by Immobilized Metal Affinity Chromatography using Ni Sepharose (6 Fast Flow, GE). The centrifugation-cleared bacterial lysate was bound to beads in binding buffer (200 mM NaCl, 20 mM Tris/Cl pH = 7.4). […]
For gel-based fluorescence labelling of recombinant AIFM1, 1.7 µM recombinant protein was spiked - in to PBS or PBS -diluted HEK293 cell lysate ( 100 µg per reaction sample). […]
Click Master-mix (8 µL, 100 µM TAMRA-azide, Baseclick, Neuried, Germany, Cat# BCFA-008-10, 500 µM BTTAA ligand, Jena Bioscience, Jena, Germany, CLK -067, 1 mM CuSO4) was added and the CuAAC reaction started by addition of 2 µL of aq. sodium ascorbate (c end= 2 mM). […] Fluorescence scanning was performed using a Las-3000 fluorescence darkbox (Fujifilm, Minato, Japan) with a Fujinon VRF 43LMD Lens, 605DF40 filter and 520 nm EPI excitation wavelength and loading controls were developed with Coomassie stain afterwards. […]

[4] = system: IDH2 mRNA in PDL-hTERT cells; test: Quantitative PCR of IDH2 mRNA; type: cell-based, human; parameters: dose or concentration left out as unconfirmed; details: […] µM, GAPDH housekeeper

T2 sequence (Q8N8N7 whole entry): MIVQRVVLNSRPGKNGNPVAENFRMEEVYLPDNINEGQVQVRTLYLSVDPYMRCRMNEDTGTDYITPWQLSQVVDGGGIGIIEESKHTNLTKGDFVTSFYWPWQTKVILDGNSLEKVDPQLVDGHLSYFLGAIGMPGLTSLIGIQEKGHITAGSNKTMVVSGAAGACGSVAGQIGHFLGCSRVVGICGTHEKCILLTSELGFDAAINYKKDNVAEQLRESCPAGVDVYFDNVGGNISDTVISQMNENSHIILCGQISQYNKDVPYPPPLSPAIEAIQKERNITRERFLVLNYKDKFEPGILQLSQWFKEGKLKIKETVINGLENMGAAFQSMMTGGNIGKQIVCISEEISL

O=C(O)c1cn(C2CC2)c2cc(N3CCNCC3)c(F)cc2c1=O [Ciprofloxacin]
NUDT1 in vitro activity, inhibition [1]: significant partial inhibition
competition of Cipro P2 / Levo P2 labeling of recombinant NUDT1 [2]: competed
PTGR2 activity [3]: not significantly affected
IDH2 mRNA levels versus vehicle control [4]: not significantly changed
